Assay results published in PMC7044277 (Nature Communications, 2020).
Several values for one entry are separate records, joined by “and”; a condition that tells them apart may be missing. Equal entries are not always repeated.

How the values were obtained:
Type in all cases: cell-based
320 non-olfactory GPCRs [1] = biological target: T1, 320 non-olfactory GPCRs (Homo sapiens, UniProt O00574)
T1 construct: expressed in transfected cells; host or cells: HTLA cells

320 non-olfactory GPCRs [2] = biological target: T2, 320 non-olfactory GPCRs (Homo sapiens, UniProt P33032); conditions: receptor MC5R; replicate values, Fig_4g
T2 construct: expressed in transfected cells; host or cells: HTLA cells
T2 sequence (P33032 whole entry): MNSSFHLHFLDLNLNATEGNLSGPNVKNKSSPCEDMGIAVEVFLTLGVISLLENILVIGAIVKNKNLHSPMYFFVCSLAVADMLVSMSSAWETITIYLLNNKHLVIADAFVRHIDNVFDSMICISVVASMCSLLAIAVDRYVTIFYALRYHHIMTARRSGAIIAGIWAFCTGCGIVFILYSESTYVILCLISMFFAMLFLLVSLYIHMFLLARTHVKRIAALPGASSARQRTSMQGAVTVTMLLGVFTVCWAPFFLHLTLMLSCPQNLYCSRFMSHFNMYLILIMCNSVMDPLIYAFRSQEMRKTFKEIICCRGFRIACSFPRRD

320 non-olfactory GPCRs [3] = biological target: 320 non-olfactory GPCRs (Homo sapiens, UniProt Q16581)
Chain of 320 non-olfactory GPCRs (Homo sapiens, UniProt Q16581) (Q16581 whole entry): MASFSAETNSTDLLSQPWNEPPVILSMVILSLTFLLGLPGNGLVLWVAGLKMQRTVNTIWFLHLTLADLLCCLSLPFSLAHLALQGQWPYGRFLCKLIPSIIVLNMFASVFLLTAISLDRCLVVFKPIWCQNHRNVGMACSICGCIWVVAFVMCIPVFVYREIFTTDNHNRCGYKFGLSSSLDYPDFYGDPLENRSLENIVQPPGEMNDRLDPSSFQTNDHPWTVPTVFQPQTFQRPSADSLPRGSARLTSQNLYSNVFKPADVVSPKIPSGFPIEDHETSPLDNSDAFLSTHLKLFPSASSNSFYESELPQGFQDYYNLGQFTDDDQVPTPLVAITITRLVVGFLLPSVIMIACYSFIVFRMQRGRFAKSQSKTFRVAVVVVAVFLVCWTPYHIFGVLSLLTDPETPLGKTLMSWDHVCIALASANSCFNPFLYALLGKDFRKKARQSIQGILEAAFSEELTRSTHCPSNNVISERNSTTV

320 non-olfactory GPCRs [4] = biological target: 320 non-olfactory GPCRs (Homo sapiens, UniProt P35372); conditions: receptor OPRM1; replicate values, Fig_4g
Chain of 320 non-olfactory GPCRs (Homo sapiens, UniProt P35372) (P35372 whole entry): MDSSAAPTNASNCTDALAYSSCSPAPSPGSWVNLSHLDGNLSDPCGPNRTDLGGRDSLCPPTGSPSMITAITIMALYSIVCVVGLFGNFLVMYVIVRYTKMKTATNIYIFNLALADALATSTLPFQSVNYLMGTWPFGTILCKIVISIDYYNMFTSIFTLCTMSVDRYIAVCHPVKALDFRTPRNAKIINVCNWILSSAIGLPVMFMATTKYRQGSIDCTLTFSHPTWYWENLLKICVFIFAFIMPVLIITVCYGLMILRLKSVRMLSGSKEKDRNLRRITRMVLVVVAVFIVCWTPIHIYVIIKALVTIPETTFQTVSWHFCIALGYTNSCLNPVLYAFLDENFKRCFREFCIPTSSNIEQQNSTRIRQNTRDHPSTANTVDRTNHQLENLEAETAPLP
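Throughout, for Fold of Basal: compound tested at 1 µM final concentration.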
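Throughout, for GPCRome agonism screen response: fold over basal response of each receptor without drug.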

T1 sequence (O00574 whole entry): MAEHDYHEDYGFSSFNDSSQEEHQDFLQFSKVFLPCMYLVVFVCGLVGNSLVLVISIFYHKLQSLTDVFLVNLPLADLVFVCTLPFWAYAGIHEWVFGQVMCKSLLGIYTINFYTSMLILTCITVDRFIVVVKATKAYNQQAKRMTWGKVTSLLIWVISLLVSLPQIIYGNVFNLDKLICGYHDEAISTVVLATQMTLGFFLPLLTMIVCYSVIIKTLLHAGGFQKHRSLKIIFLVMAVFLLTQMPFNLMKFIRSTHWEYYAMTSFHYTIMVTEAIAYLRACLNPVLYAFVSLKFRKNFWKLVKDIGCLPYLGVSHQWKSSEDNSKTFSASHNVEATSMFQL

CCOc1cccc2cc(C(C)NCC3(O)CCCCC3)oc12 (stereo not shown) [O4LE6]
Fold of Basal (320 non-olfactory GPCRs [1]): 0.9849 and 0.6404 and 1.204 and 0.796 | GPCRome agonism screen response (320 non-olfactory GPCRs [2]): 1.253 and 1.116 and 1.497 and 1.062 | Fold of Basal (320 non-olfactory GPCRs [3]): 1.165 and 1.05 and 0.9669 and 0.8841 | GPCRome agonism screen response (320 non-olfactory GPCRs [4]): 0.5449 and 0.6973 and 1.0539 and 0.5973
